Measurements: paper PMC8951016, “Computational Design and Biological Evaluation of Analogs of Lupin Peptide P5 Endowed with Dual PCSK9/HMG-CoAR Inhibiting Activity” (Pharmaceutics, 2022)
Like-named read-outs stand apart in the source and are kept apart here. No end group written: not given here.

Experiments:
PCSK9-LDLR [1] = biological target: T1, PCSK9-LDLR (Homo sapiens, UniProt Q8NBP7); assay: In vitro PCSK9-LDLR binding assay; conditions: 0.1–100 µM, LDLR-AB coated plate, 2 h at RT, absorbance 450 nm; four independent experiments in duplicate
T1 construct: purchased CycLex Co., Nagano, Japan (CircuLex)
Procedure: Peptides P5 and P5 analogs (0.1–100 µM) were tested using the in vitro PCSK9-LDLR binding assay (CycLex Co., Nagano, Japan) following the manufacture instructions and conditions already optimized. Further details are provided in Supplementary Materials. […]
cLex Co., Nagano, Japan). The peptides (P5, P5-Best, P-H6A, and P5-S7A) were synthe-sized by the company GeneScript (Piscataway, NJ, USA) at >95% purity. The antibody against HMG-CoAR was bought from Abcam (Cambridge, UK). Phenylmethanesulfonyl fluoride (PMSF), Na-orthovanadate inhibitors, and the antibodies against rabbit Ig-horse-radish peroxidase (HRP), mouse Ig-HRP, and SREBP-2 (which recognizes epitope located in a region between 833–1141 and bands at about 132 kDa) were purchased from Santa Cruz Biotechnology Inc. (Santa Cruz, CA, USA). […]
(§1) HMG-CoAR Aactivity Assay. […] Subsequently, the samples were mixed and the absorbance at 340 nm read by the microplate reader Synergy H1 (Winooski, VT, USA) at time 0 and 10 min. The HMG-CoAR-dependent oxidation of NADPH and the inhibition properties of peptides were measured by absorbance reduction, which is directly proportional to enzyme activ- […]
(§2) In Vitro PCSK9-LDLR Binding Assay. […] The reaction was stopped with 2.0 M sulfuric acid and the absorbance at 450nm was measured using the Synergy H1 fluorescent plate reader […]

[2] = biological target: T2, HMG-CoAR (catalytic domain) (Homo sapiens, UniProt P04035); assay: HMG-CoAR activity assay; format: biochemical; conditions: 10–500 µM, 37 °C, NADPH oxidation, absorbance 340 nm at 0 and 10 min; four independent experiments in duplicate
T2 construct: finally the HMG-CoAR (cata- lytic domain) (2 µL); purchased Sigma-Aldrich
T2 sequence (P04035 426-888 limits assumed): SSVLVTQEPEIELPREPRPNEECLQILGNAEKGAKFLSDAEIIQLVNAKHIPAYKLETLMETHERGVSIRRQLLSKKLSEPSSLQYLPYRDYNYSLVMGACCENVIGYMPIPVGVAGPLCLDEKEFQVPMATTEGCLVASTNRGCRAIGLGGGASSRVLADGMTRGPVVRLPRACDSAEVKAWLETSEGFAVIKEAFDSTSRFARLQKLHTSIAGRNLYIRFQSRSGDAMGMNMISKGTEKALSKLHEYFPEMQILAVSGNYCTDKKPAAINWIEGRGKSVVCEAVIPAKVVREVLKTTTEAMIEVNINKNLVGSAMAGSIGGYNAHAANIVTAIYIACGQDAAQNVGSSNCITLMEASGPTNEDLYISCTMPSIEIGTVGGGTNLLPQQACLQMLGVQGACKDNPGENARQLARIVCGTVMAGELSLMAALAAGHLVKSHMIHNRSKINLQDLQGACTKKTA
Procedure: The experiments were carried out following the manufacturer instructions and optimized protocol. See Supplementary Materials for further details. […]
cLex Co., Nagano, Japan). The peptides (P5, P5-Best, P-H6A, and P5-S7A) were synthe-sized by the company GeneScript (Piscataway, NJ, USA) at >95% purity. The antibody against HMG-CoAR was bought from Abcam (Cambridge, UK). Phenylmethanesulfonyl fluoride (PMSF), Na-orthovanadate inhibitors, and the antibodies against rabbit Ig-horse-radish peroxidase (HRP), mouse Ig-HRP, and SREBP-2 (which recognizes epitope located in a region between 833–1141 and bands at about 132 kDa) were purchased from Santa Cruz Biotechnology Inc. (Santa Cruz, CA, USA). The antibodies against hepatocyte nu-clear factor 1-alpha (HNF1-alpha) and PCSK9 were bought from GeneTex (Irvine, CA, USA). The inhibitor cocktail Complete Midi was from Roche (Basel, Switzerland). Mini protean TGX pre-cast gel 7.5% and Mini nitrocellulose Transfer Packs were purchased from BioRad (Hercules, CA, USA).
HepG2 Cell Culture Conditions and Treatment. The HepG2 cell line was bought from ATCC (HB-8065, ATCC from LGC Standards, Milan, Italy) and was cultured in DMEM high glucose with stable L-glutamine, supplemented with 10% FBS, 100 U/mL penicillin, 100 µg/mL streptomycin (complete growth medium) with incubation at 37 °C […]
as §1, with “Assay. The experiments were carried out following the man-ufacturer instructions and optimized protocol. The assay buffer, NADPH, substrate solution, and HMG-CoAR were provided in the HMG-CoAR Assay Kit (Sigma Aldrich SRL, Milan, Italy).” for “Assay.”
as §2

PCSK9-LDLR [3] = biological target: T1, PCSK9-LDLR; conditions: cited from earlier work; for impairment of PCSK9-LDLR binding vs control: fixed concentration of 100 µM
[4] = biological target: T2, HMG-CoAR (catalytic domain); conditions: metabolite; read-out: IC50, HMG-CoAR activity (P5-met); cited from earlier work
LDLR = tested on: LDLR; set-up: method as in 3 sources, ref 48 = [48]; doi:10.1111/jfbc.12757; 48. Lammi C. Zanoni C. Arnoldi A. Aiello G. […] (P3), a peptide from lupin protein, absorbed by Caco-2 cells, modulates cholesterol metabolism in HepG2 cells via SREBP-1 activation J. Food B ||| ref 22 = [22]; doi:10.1016/j.jff.2017.02.009; 22. Zanoni C. Aiello G. Arnoldi A. Lammi C. Investigations on the hypocholesterolaemic activity of […] and LTFPGSAED, two peptides from lupin β-conglutin: Focus on LDLR and PCSK9 pathways J. Fu ||| ref 24 = [24]; PMID 33808034; doi:10.3390/nu13030863; 24. Lammi C. Aiello G. Bollati C. Li J. Bartolomei M. Ranaldi G. Ferruzza S. Fassi E.M.A. Grazioso G. Sambuy Y. Trans-Epithelial Transport, Metabolism, and Biological Activity Assessment of the Multi-; conditions: cellular level, through modulation of SREBP-2; cited from earlier work
PCSK9 = tested on: PCSK9; set-up: method as in 3 sources, ref 49 = [49]; PMID 35011066; doi:10.3390/nu14010193; 49. Macchi C. Greco M.F. Ferri N. Magni P. Arnoldi A. Corsini A. Sirtori C.R. Ruscica M. Lammi C. Impact of Soy β-Conglycinin Peptides on PCSK9 Protein Expression in HepG2 Cells Nutrients 2021 14 193 ||| ref 22 = [22]; doi:10.1016/j.jff.2017.02.009; 22. Zanoni C. Aiello G. Arnoldi A. Lammi C. Investigations on the hypocholesterolaemic activity of […] and LTFPGSAED, two peptides from lupin β-conglutin: Focus on LDLR and PCSK9 pathways J. Fu ||| ref 24 = [24]; PMID 33808034; doi:10.3390/nu13030863; 24. Lammi C. Aiello G. Bollati C. Li J. Bartolomei M. Ranaldi G. Ferruzza S. Fassi E.M.A. Grazioso G. Sambuy Y. Trans-Epithelial Transport, Metabolism, and Biological Activity Assessment of the Multi-; conditions: cellular level, through modulation of HNF-1α; cited from earlier work
[5] = read-out: IC50, PCSK9-LDLR binding (Pep2-8 analogs)

T1 sequence (Q8NBP7 153-692): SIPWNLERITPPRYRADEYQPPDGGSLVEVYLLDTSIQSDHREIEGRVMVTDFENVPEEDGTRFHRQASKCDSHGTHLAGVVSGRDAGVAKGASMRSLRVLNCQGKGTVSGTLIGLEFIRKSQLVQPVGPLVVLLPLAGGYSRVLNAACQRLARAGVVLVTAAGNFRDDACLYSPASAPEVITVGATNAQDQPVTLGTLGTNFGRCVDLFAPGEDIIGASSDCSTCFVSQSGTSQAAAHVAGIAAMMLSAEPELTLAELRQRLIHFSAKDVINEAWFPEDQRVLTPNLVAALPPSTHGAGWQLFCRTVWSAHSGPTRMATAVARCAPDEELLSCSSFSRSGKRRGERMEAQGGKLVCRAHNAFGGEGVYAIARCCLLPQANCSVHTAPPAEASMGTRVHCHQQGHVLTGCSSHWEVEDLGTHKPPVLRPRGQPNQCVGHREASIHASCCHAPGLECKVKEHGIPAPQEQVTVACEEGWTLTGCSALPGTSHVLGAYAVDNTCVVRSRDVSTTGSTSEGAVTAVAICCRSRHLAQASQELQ
T1 sequence (Q8NBP7 31-152 partner limits assumed): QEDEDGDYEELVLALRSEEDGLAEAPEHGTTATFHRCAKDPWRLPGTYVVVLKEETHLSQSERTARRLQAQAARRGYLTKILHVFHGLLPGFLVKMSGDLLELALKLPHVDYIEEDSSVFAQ

Row | IC50 (PCSK9-LDLR [1]) | IC50 [2] | Substance | impairment of PCSK9-LDLR binding vs control (PCSK9-LDLR [3]) | IC50 (PCSK9-LDLR [3]; [5]) | further results
1 | 1.45 µM | 73.8 µM | LILPKHADAD [Peptide P5-S7A] |  |  | 
2 |  | 88.9 µM | LYLPKHSDRD [Peptide P5-Best] |  |  | 
3 | 9 µM | 74.4 µM | LILPKASDAD [Peptide P5-H6A] |  |  | 
4 |  |  | [Y9A]Pep2-8: analog of peptide Pep2-8 (TVFTSWEEALDWV) | −69.8% | 27.1 ± 1.2 µM | 
5 |  |  | [T4R,W12Y]Pep2-8: analog of peptide Pep2-8 (TVFRSWEEYLDYV) | −93.0% | 14.5 ± 1.3 µM | 
6 |  |  | LPKHSDAD [Peptide P5-met, breakdown fragment (metabolite) of P5] |  |  | IC50 (PCSK9-LDLR [3]; metabolite, read-out: IC50, PCSK9-LDLR binding (P5-met)): 1.7 µM; IC50 [4]: 175 µM; LDLR level (P5-met, words) (LDLR): improves the LDLR; PCSK9 level (P5-met, words) (PCSK9): reduces PCSK9 levels
